The values below come from patent US20120003156A1, “METHODS FOR TREATING NEOPLASIA BY INHIBITING LACTATE DEHYDROGENASE AND/OR NICOTINAMIDE PHOSPHORIBOSYLTRANSFERASE” (The Johns Hopkins University, priority 2008, published 2012).

The target in one data set is LDHA (Homo sapiens, UniProt P00338). The data set can be described thus: Affinity chromatography of LDHA on Sepharose-immobilized FX11 or E. The following applies: P493 cell lysate; elution with 1 mM NADH. Format: binding. Here is the method:
FX11 and E molecules which contain carboxyl groups were coupled to immobilized diaminodipropylamine (DADPA) resins according to the manufacturer's instructions (Pierce). […] An equal amount of cell lysate was loaded onto these beads and eluted with 1 mM NADH after washing with 6 column volumes of high salt (1 M NaCl). LDHA activity was performed from the eluates to assess the binding affinity of the molecules with LDHA.

In data set [1] the test system is P493 cells. The data set can be described thus: Oxygen consumption, Clark-type oxygen electrode. The following applies: FX11 treatment. Format: cell-based, human. Here is the method:
Oxygen consumption was measured using a Clark-type oxygen electrode (Oxytherm System, Hansatech Instruments Ltd). 5×10^6 cells in 1 ml medium were placed in the chamber above a membrane which is permeable to oxygen. Oxygen diffuses through the membrane and is reduced at the cathode surface so that a current flows through the circuit which is completed by a thin layer of KCl solution. The current which is generated bears a direct, stoichiometric relationship to the oxygen reduced, and is converted to a digital signal. Determinations were done in triplicate, and the entire experiment was done twice.

The subject of data set [2] is P493 cells. The data set can be described thus: Annexin V / 7-AAD cell death assay. The following applies: 24 hours of FX11 treatment. Format: cell-based, human.
Data set [3] concerns P493 human lymphoma B cells. The data set can be described thus: Cell population growth, trypan blue live cell count. Format: cell-based. Here is the method: (§1) P493 human lymphoma B cells were maintained in RPMI 1640 with 10% fetal bovine serum (FBS) and 1% penicillin-streptomycin. P198 human pancreatic cancer cells; RCC4, RCC4-VHL human renal carcinoma cells; MCF-7 and MDA-MB-453 breast cancer cells were maintained in high glucose (4.5 mg/ml) DMEM with 10% FBS and 1% penicillin-streptomycin. Non-hypoxic cells (20% O2) were maintained at 37° C. in a 5% CO2, 95% in an air incubator. Hypoxic cells (1% O2) were maintained in a controlled atmosphere chamber (PLAS-LABS, Lansing, Mich.) with a gas mixture containing 1% O2, 5% CO2, and 94% N2 at 37° C. for the indicated time. Bright live cells were counted daily in a hemacytometer using trypan blue dye to exclude dead cells. All cells were grown at a concentration of 10^5 cells/ml. All drugs treatment began at day 0.
siRNAs targeting human LDHA (ON-TARGETplus SMARTpool) were purchased from Dharmacon Research Inc. Targeting sequences for LDHA were a pool of the following four target sequences: sequence 1, […]; sequence 2, […]; sequence 3, […]; sequence 4, […]. Accordingly, one of skill in the art would recognize the siRNA sequences corresponding to these targets. For P493 human lymphoma B cells, transfection of siRNAs was performed using an Amaxa Nucleotransfection device according to the manufacturer's instructions. Briefly, 2 μg siLDHA ON-TARGETplus SMARTpool or ON-TARGETplus Non-targeting Pool (Dharmacon Research Inc.) were transfected into 2×10^6 cells at 0 hours. […]. The remaining cells were harvested for immunoblot analysis. For P198 human pancreatic cancer cells, transfection of siRNAs was performed using X-tremeGENE siRNA Transfection Reagent (Roche) according to the manufacturer's instructions.

For data set [4], the system named is P493 cells. The data set can be described thus: ATP levels, luciferin-luciferase-based assay. Format: cell-based, human. The following applies: 9 μM FX11 or 0.5 nM FK866, 20 hours. Here is the method:
P493 cells were treated with 9 μM FX11 or 0.5 nM FK866 for 20 hours and counted. ATP levels were determined by luciferin-luciferase-based assay (Promega) on aliquots containing equal number of cells according to standard protocol.

Data set [5] deals with P198 human pancreatic cancer cells. The data set can be described thus: Cell population growth. Format: cell-based. The following applies: 1% O2 vs normoxia. Here is the method:
as §1
siRNAs targeting human LDHA (ON-TARGETplus SMARTpool) were purchased from Dharmacon Research Inc. Targeting sequences for LDHA were a pool of the following four target sequences: sequence 1, […]; sequence 2, […]; sequence 3, […]; sequence 4, […]. Accordingly, one of skill in the art would recognize the siRNA sequences corresponding to these targets. For P493 human lymphoma B cells, transfection of siRNAs was performed using an Amaxa Nucleotransfection device according to the manufacturer's instructions. […]

A further data set relates to MCF-7 cells. Kind of data set: Cell population growth. Format: cell-based, human. The following applies: dose-response. On the procedure: as §1
For a further data set, the system named is MDA-MB-453 cells. The data set can be described thus: Cell population growth. Format: cell-based, human. The following applies: dose-response. On the procedure: as §1
For another data set, the system named is RCC4 cells. The data set can be described thus: Cell population growth. The following applies: dose-response. Format: cell-based, human. On the procedure: as §1
The test system of another data set is RCC4-VHL cells. Kind of data set: Cell population growth. Format: cell-based, human. The following applies: dose-response. Here is the method: as §1
Data set [6] concerns human glioblastoma U-87-MG cells. Kind of data set: Cell growth. Format: cell-based.
Data set [7] relates to P493 human lymphoma B cells. Kind of data set: Human P493 B cell lymphoma xenograft. Format: in vivo, SCID mice. Here is the method: The animal studies were performed according to the protocols approved by the Animal Care and Use Committee at Johns Hopkins University. In order to generate tumorigenesis study in xenograft model, 2.0×10^7 P493 human lymphoma B cells or 5×10^6 human pancreatic cancer cells were injected subcutaneously into male SCID mice (NCI) or athymic Hsd: RH-Foxn1nu mice (Harlan), respectively, as previously described (Feldmann et al., 2007; Gao et al., 2009; Gao et al., 2007). When the tumor volume reached 200 mm^3, groups of 5 mice were injected with control 2% DMSO or 42 μg FX11 and/or 100 μg FK866. The tumor volumes were measured using a digital caliper after 4, 7 and 10 days of treatment. Tumor volumes were calculated using the following formula: [length (mm)×width (mm)×width (mm)×0.52]. The entire experiment was repeated seven times.

A short description of data set [8]: Expected initial serum level after IP injection. The following applies: 42 μg IP; assuming uniform and immediate distribution in the vascular system. Format: in vivo. On the procedure: (§2) Although the renewed interest in the Warburg effect is accompanied by a greater understanding of its molecular underpinnings, targeting it for therapeutic purposes has become a major challenge. […] Of note, primary human lymphomas have been documented to have elevated LDHA expression particularly in hypoxic regions. […] A desired FX11 dose of 42 μg for daily intraperitoneal (IP) injection was calculated. An initial serum level of ˜100 μM was expected, assuming a uniform and immediate distribution in the vascular system without accounting for the drug half-life or drug metabolism.

Data set [9] in a line: Solubility in aqueous solution. Format: physicochemical. The following applies: relative to the 42 μg dose. Here is the method: as §2
The target of data set [10] is purified human liver LDHA (Homo sapiens, UniProt P00338). Kind of data set: Determination of Ki and enzyme kinetics of LDHA. The following applies: NADH as substrate; Lineweaver-Burk plots.
Procedure: The reaction velocity of purified human LDHA or GAPDH was determined by a decrease or increase in absorbance at 340 nm of NADH, respectively. […] The GADPH activity was assessed using the protocol described in Worthington Enzyme Manual: http://www.worthington-biochem.com/GAPD/assay.html with varying concentrations of NAD^+. Ki values were determined from double-reciprocal plots by linear regression analysis using SigmaPlot Enzyme Kinetic software.

Structures are written as SMILES. “Also recorded” adds a separate entry of the source.

Regarding `CCCc1c(O)c(O)c(C(=O)O)c2cc(Cc3ccccc3)c(C)cc12` [FX11, 2,3-dihydroxy-6-methyl-7-(phenylmethyl)-4-propylnaphthalene-1-carboxylic acid], the “LDHA activity eluted from affinity beads relative to beads with immobilized E” value on LDHA was found to be 4 fold. For the same molecule, the oxygen consumption result in the data set with P493 cells [1] is recorded as “increased oxygen consumption”. The “cell death (7-AAD and annexin V labeling)” value with P493 cells [2] was “increased”. The “growth inhibition at 1% O2 compared with normoxia” value in [3] (9 μM FX11) is reported as “increased”. Further, the “proliferative rate of P493 cells with siRNA knock-down of LDHA” value in [3] (9 μM FX11) is given as “not further slowed”. In [3] (glucose-depleted medium), the “inhibition of P493 cells in the absence of glucose” value is on record as “could not inhibit P493 cells further”. The “inhibition of P493 cells, dose-response” value in [3] (normoxia (20% O2) and hypoxia (1% O2)) is reported as “dose-dependent manner that was augmented in hypoxia”. For the same molecule, the “proliferation of P493 cells” value in data set [3] (single agent) was “diminished proliferation”. Also, the ATP levels entry with P493 cells [4] is “decrease in ATP levels”. Moreover, the “effect of hypoxia on inhibition of P198 cells by FX11” value in data set [5] is “sensitized”. Besides, the “cell population growth / sensitivity” value in the data set on MCF-7 cells and in the data set with RCC4 cells was “inhibited cell population growth; also recorded: more sensitive” each time. The cell population growth entry in the data set with MDA-MB-453 cells and with RCC4-VHL cells was “inhibited cell population growth” in each case. For the same molecule, the growth inhibition result in data set [6] is given as “dose-dependent manner”. Moreover, in data set [7] (daily IP, 42 μg FX11 or 0.8 mg doxycycline, vs vehicle 2% DMSO), the “tumor growth of palpable P493 xenografts” value is “remarkable inhibition of tumor growth”. Moreover, in [7] (treatment from 200 mm^3, daily IP 42 μg FX11 and/or 100 μg FK866, ten days), the “tumor growth of established P493 lymphoma xenografts” value was “cytostatic, but significant effect; also recorded: effectively inhibited”. In addition, the initial serum level in [8] is ~100 µM. Also, the “solubility limit in aqueous solution” value in data set [9] is recorded as “dose could only be doubled before the limit of FX11 in aqueous solution was reached”. For the same molecule, the “mode of inhibition of LDHA” value in data set [10] is given as “competitive inhibitors; also recorded: competitive inhibitor of NADH”.
